Values after ≈ are worked out from the molar mass of the structure shown.
The compounds below were run on Staphylococcus aureus (assay: Antibacterial activity against methicillin-resistant Staphylococcus aureus USA300 LAC assessed as reduction in bacterial growth incubated for 21 hrs by broth dilution method).
Format: functional
Work on `CC[C@H](C)[C@H]1NC(=O)[C@@H]2CSC(N2)[C@H](C(C)C)NC(=O)[C@@H](Cc2c[nH]c3ccccc23)NC(=O)[C@H](C(C)C)NC(=O)[C@@H](CC(C)C)NC(=O)[C@H](Cc2c3ccccc3cc3ccccc23)NC1=O` yielded an MIC of 106 µM (≈ 100 µg/mL).
With `CC(C)[C@@H]1NC(=O)[C@@H](Cc2c[nH]c3ccccc23)NC(=O)[C@H](C(C)C)NC(=O)[C@@H](Cc2c[nH]c3ccccc23)NC(=O)[C@H](Cc2c[nH]c3ccccc23)NC(=O)[C@@H](C(C)C)NC(=O)[C@@H]2CSC1N2` the MIC was 106 µM (≈ 100 µg/mL).
`CSCC[C@H]1NC(=O)[C@H](Cc2c[nH]c3ccccc23)NC(=O)[C@@H](C(C)C)NC(=O)[C@@H]2CSC(N2)[C@H](C(C)C)NC(=O)[C@@H](Cc2c[nH]c3ccccc23)NC(=O)[C@H](C(C)C)NC1=O` was tested, and the MIC was 113 µM (≈ 100 µg/mL).
With `CC(C)C[C@@H]1NC(=O)[C@@H](C(C)C)NC(=O)[C@H](C(C)C)NC(=O)[C@@H](C(C)C)NC(=O)[C@@H]2CSC(N2)[C@H](C(C)C)NC(=O)[C@@H](Cc2c[nH]c3ccccc23)NC1=O` the MIC was 8 µM (≈ 6.26 µg/mL).
With `CC(C)[C@@H]1NC(=O)[C@@H](Cc2c[nH]c3ccccc23)NC(=O)[C@H](C(C)C)NC(=O)[C@@H](Cc2ccccc2)NC(=O)[C@H](Cc2c[nH]c3ccccc23)NC(=O)[C@@H](C(C)C)NC(=O)[C@@H]2CSC1N2` the MIC was 111 µM (≈ 100 µg/mL).
With `CC(C)[C@@H]1NC(=O)[C@@H](Cc2c[nH]c3ccccc23)NC(=O)[C@H](C(C)C)NC(=O)C2(CC2)NC(=O)[C@H](Cc2c[nH]c3ccccc23)NC(=O)[C@@H](C(C)C)NC(=O)[C@@H]2CSC1N2` the MIC was 119 µM (≈ 100 µg/mL).
